Test results from the supplement of paper PMC10331698.
± gives the standard deviation of the averaged measurements.

Assays:
Assay in all cases: level (log10 ratio to DMSO vehicle control); higher = higher biomarker level / cell amount than vehicle control
Conditions in all cases: in DMSO
[1] = compound: OCCCCC(F)(F)C(F)(F)C(F)(F)C(F)(F)F [4:4 Fluorotelomer alcohol]
Method: (§1)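 BioMAP Diversity Plus panel of 12 human primary cell co-culture systems (3C, 4H, LPS, SAg, BT, BF4T, BE3C, CASM3C, HDF3CGF, KF3CT, MyoF, Mphg). Compounds were added 1 h before stimulation and left for 24 h (MyoF 48 h; BT 72 h for soluble read-outs or 6 d for IgG). Biomarkers were read by ELISA, cytotoxicity by SRB, PBMC viability and proliferation by Alamar Blue. Each well value was divided by the mean of 8 DMSO control wells on the same plate and log10 transformed; duplicate blinded samples were tested at 4 concentrations.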

[2] = compound: O=C(CC(=O)C(F)(F)C(F)(F)C(F)(F)F)c1cccs1 [(Perfluorobutyryl)-2-thenoylmethane]
Method: as §1

[3] = compound: O=S(=O)(O)CCC(F)(F)C(F)(F)C(F)(F)C(F)(F)F [4:2 Fluorotelomer sulfonic acid]
Method: as §1

[4] = compound: O=C(O)C(F)(F)C(F)(F)C(F)(F)C(F)(F)C(F)(F)C(F)(F)C(F)(F)F [Ammonium perfluorooctanoate]
Method: as §1

[5] = compound: O=P(O)(O)CCC(F)(F)C(F)(F)C(F)(F)C(F)(F)C(F)(F)C(F)(F)F [2-(Perfluorohexyl)ethylphosphonic acid]
Method: as §1

[6] = compound: C=CC(=O)OCCC(F)(F)C(F)(F)C(F)(F)C(F)(F)C(F)(F)C(F)(F)C(F)(F)C(F)(F)F [8:2 Fluorotelomer acrylate]
Method: as §1

[7] = compound: O=C(Cl)C(F)(F)C(F)(F)C(F)(F)C(=O)Cl [Hexafluoroglutaryl chloride]
Method: as §1

In the case of 3C:CD87/uPAR, the “level (log10)” value ([1]; 6700 nM) is reported as -0.018 ± 0.057, the “level (log10)” value ([1]; 20000 nM) is reported as -0.0155 ± 0.005 and the “level (log10)” value ([1]; 60000 nM) is reported as 0.012 ± 0.0014. For the same test system, the “level (log10)” value ([2]; 6700 nM) was -0.148 ± 0.033, the “level (log10)” value ([2]; 20000 nM) was -0.07 ± 0.03 and the “level (log10)” value ([3]; 6700 nM) was -0.05 ± 0.047. For the same test system, the “level (log10)” value ([3]; 20000 nM) was -0.017 ± 0.069, the “level (log10)” value ([3]; 60000 nM) was 0.002 ± 0.058 and the “level (log10)” value ([4]; 6700 nM) was -0.007 ± 0.0042. For the same test system, the “level (log10)” value ([4]; 20000 nM) was -0.0095 ± 0.013, the “level (log10)” value ([4]; 60000 nM) was -0.056 ± 0.011 and the “level (log10)” value ([5]; 6700 nM) was 0.0365 ± 0.03. The “level (log10)” value ([5]; 20000 nM) was 0.0125 ± 0.00071, the “level (log10)” value ([5]; 60000 nM) was -0.0385 ± 0.0092 and the “level (log10)” value ([6]; 6700 nM) was 0.007 ± 0.027. For the same test system, the “level (log10)” value ([6]; 20000 nM) was -0.0065 ± 0.025, the “level (log10)” value ([6]; 60000 nM) was -0.0025 ± 0.036 and the “level (log10)” value ([7]; 6700 nM) was -0.009 ± 0.0071. The “level (log10)” value ([7]; 20000 nM) was 0.0225 ± 0.022 and the “level (log10)” value ([7]; 60000 nM) was 0.003 ± 0.041.

For SAg:SRB, the “level (log10)” value ([1]; 6700 nM) was 0.0005 ± 0.0021, the “level (log10)” value ([1]; 20000 nM) was 0.0085 ± 0.015 and the “level (log10)” value ([1]; 60000 nM) was -0.0055 ± 0.0035. For the same test system, the “level (log10)” value ([2]; 6700 nM) was -0.012 ± 0.013, the “level (log10)” value ([2]; 20000 nM) was -0.0845 ± 0.0021 and the “level (log10)” value ([3]; 6700 nM) was -0.0105 ± 0.005. The “level (log10)” value ([3]; 20000 nM) was -0.0085 ± 0.011, the “level (log10)” value ([3]; 60000 nM) was -0.009 ± 0.011 and the “level (log10)” value ([4]; 6700 nM) was -0.013 ± 0.0042. For the same test system, the “level (log10)” value ([4]; 20000 nM) was -0.012 ± 0.0057, the “level (log10)” value ([4]; 60000 nM) was -0.034 ± 0.0042 and the “level (log10)” value ([5]; 6700 nM) was -0.008 ± 0.011. The “level (log10)” value ([5]; 20000 nM) was 0.0025 ± 0.013, the “level (log10)” value ([5]; 60000 nM) was -0.0355 ± 0.035 and the “level (log10)” value ([6]; 6700 nM) was -0.004 ± 0.0028. The “level (log10)” value ([6]; 20000 nM) was -0.0055 ± 0.011, the “level (log10)” value ([6]; 60000 nM) was 0.001 ± 0.014 and the “level (log10)” value ([7]; 6700 nM) was -0.0025 ± 0.0035. For the same test system, the “level (log10)” value ([7]; 20000 nM) was -0.0035 ± 0.0035 and the “level (log10)” value ([7]; 60000 nM) was 0.0045 ± 0.0021.

LPS:CD106/VCAM-1 was tested, and the “level (log10)” value ([1]; 6700 nM) was -0.001 ± 0.011, the “level (log10)” value ([1]; 20000 nM) was 0.0045 ± 0.018 and the “level (log10)” value ([1]; 60000 nM) was 0.003 ± 0.02. For the same test system, the “level (log10)” value ([2]; 6700 nM) was -0.0045 ± 0.011, the “level (log10)” value ([2]; 20000 nM) was -0.023 ± 0.031 and the “level (log10)” value ([3]; 6700 nM) was -0.0065 ± 0.013. The “level (log10)” value ([3]; 20000 nM) was -0.006 ± 0.027, the “level (log10)” value ([3]; 60000 nM) was -0.0125 ± 0.059 and the “level (log10)” value ([4]; 6700 nM) was 0.001 ± 0.0042. The “level (log10)” value ([4]; 20000 nM) was 0.0035 ± 0.015, the “level (log10)” value ([4]; 60000 nM) was -0.013 ± 0.0028 and the “level (log10)” value ([5]; 6700 nM) was -0.021 ± 0.021. The “level (log10)” value ([5]; 20000 nM) was -0.0185 ± 0.0021, the “level (log10)” value ([5]; 60000 nM) was -0.011 ± 0.023 and the “level (log10)” value ([6]; 6700 nM) was -0.029 ± 0.013. The “level (log10)” value ([6]; 20000 nM) was -0.05 ± 0.013, the “level (log10)” value ([6]; 60000 nM) was -0.053 ± 0.0099 and the “level (log10)” value ([7]; 6700 nM) was -0.0235 ± 0.011. For the same test system, the “level (log10)” value ([7]; 20000 nM) was -0.0135 ± 0.012 and the “level (log10)” value ([7]; 60000 nM) was -0.011 ± 0.013.

In the case of BE3C:CXCL10/IP-10, the “level (log10)” value ([1]; 6700 nM) is reported as -0.0035 ± 0.0021, the “level (log10)” value ([1]; 20000 nM) is reported as 0 and the “level (log10)” value ([1]; 60000 nM) is reported as 0.014 ± 0.017. The “level (log10)” value ([2]; 6700 nM) was -0.0615 ± 0.00071, the “level (log10)” value ([2]; 20000 nM) was -0.578 ± 0.018 and the “level (log10)” value ([3]; 6700 nM) was -0.0055 ± 0.00071. For the same test system, the “level (log10)” value ([3]; 20000 nM) was -0.006 ± 0.0085, the “level (log10)” value ([3]; 60000 nM) was -0.0035 ± 0.011 and the “level (log10)” value ([4]; 6700 nM) was 0.0065 ± 0.015. For the same test system, the “level (log10)” value ([4]; 20000 nM) was -0.0135 ± 0.00071, the “level (log10)” value ([4]; 60000 nM) was -0.163 ± 0.061 and the “level (log10)” value ([5]; 6700 nM) was -0.056 ± 0.058. For the same test system, the “level (log10)” value ([5]; 20000 nM) was -0.057 ± 0.067, the “level (log10)” value ([5]; 60000 nM) was -0.0455 ± 0.09 and the “level (log10)” value ([6]; 6700 nM) was -0.0215 ± 0.015. The “level (log10)” value ([6]; 20000 nM) was -0.0165 ± 0.023, the “level (log10)” value ([6]; 60000 nM) was 0.0005 ± 0.05 and the “level (log10)” value ([7]; 6700 nM) was 0.0325 ± 0.035. The “level (log10)” value ([7]; 20000 nM) was 0.032 ± 0.028 and the “level (log10)” value ([7]; 60000 nM) was 0.0265 ± 0.043.

In the case of BF4T:PAI-I, the “level (log10)” value ([1]; 6700 nM) is reported as 0.0065 ± 0.0078, the “level (log10)” value ([1]; 20000 nM) is reported as 0.011 ± 0.0099 and the “level (log10)” value ([1]; 60000 nM) is reported as 0.0125 ± 0.012. The “level (log10)” value ([2]; 6700 nM) was -0.0085 ± 0.0092, the “level (log10)” value ([2]; 20000 nM) was -0.125 ± 0.014 and the “level (log10)” value ([3]; 6700 nM) was -0.0055 ± 0.005. For the same test system, the “level (log10)” value ([3]; 20000 nM) was -0.007 ± 0.0071, the “level (log10)” value ([3]; 60000 nM) was -0.0035 ± 0.015 and the “level (log10)” value ([4]; 6700 nM) was 0.011 ± 0.0085. For the same test system, the “level (log10)” value ([4]; 20000 nM) was 0.0055 ± 0.0021, the “level (log10)” value ([4]; 60000 nM) was 0.0185 ± 0.016 and the “level (log10)” value ([5]; 6700 nM) was -0.0075 ± 0.0092. The “level (log10)” value ([5]; 20000 nM) was -0.0115 ± 0.0035, the “level (log10)” value ([5]; 60000 nM) was -0.016 ± 0.038 and the “level (log10)” value ([6]; 6700 nM) was -0.0035 ± 0.0064. The “level (log10)” value ([6]; 20000 nM) was -0.0055 ± 0.0035, the “level (log10)” value ([6]; 60000 nM) was 0.007 ± 0.017 and the “level (log10)” value ([7]; 6700 nM) was -0.01 ± 0.014. For the same test system, the “level (log10)” value ([7]; 20000 nM) was -0.002 ± 0.0042 and the “level (log10)” value ([7]; 60000 nM) was -0.0005 ± 0.005.

With 4H:VEGFR2 the “level (log10)” value ([1]; 6700 nM) was -0.0535 ± 0.036, the “level (log10)” value ([1]; 20000 nM) was -0.0665 ± 0.005 and the “level (log10)” value ([1]; 60000 nM) was -0.0205 ± 0.047. The “level (log10)” value ([2]; 6700 nM) was -0.0915 ± 0.0078, the “level (log10)” value ([2]; 20000 nM) was -0.172 ± 0.064 and the “level (log10)” value ([3]; 6700 nM) was -0.103 ± 0.042. The “level (log10)” value ([3]; 20000 nM) was -0.0525 ± 0.071, the “level (log10)” value ([3]; 60000 nM) was 0.025 ± 0.075 and the “level (log10)” value ([4]; 6700 nM) was -0.0055 ± 0.0035. The “level (log10)” value ([4]; 20000 nM) was -0.009 ± 0.0014, the “level (log10)” value ([4]; 60000 nM) was -0.0455 ± 0.098 and the “level (log10)” value ([5]; 6700 nM) was 0.0465 ± 0.015. The “level (log10)” value ([5]; 20000 nM) was 0.0335 ± 0.0035, the “level (log10)” value ([5]; 60000 nM) was -0.002 ± 0.027 and the “level (log10)” value ([6]; 6700 nM) was 0.019 ± 0.024. The “level (log10)” value ([6]; 20000 nM) was 0.0175 ± 0.026, the “level (log10)” value ([6]; 60000 nM) was 0.016 ± 0.04 and the “level (log10)” value ([7]; 6700 nM) was -0.0325 ± 0.029. The “level (log10)” value ([7]; 20000 nM) was 0.018 ± 0.031 and the “level (log10)” value ([7]; 60000 nM) was 0.047 ± 0.035.
